Experimental data reported in PubChem BioAssay AID296 (DTP/NCI, 2004).
Where “and” joins values, the source holds several entries; their conditions need not be identical. Equal entries are not always repeated. Inconclusive results are not listed.

System: MX-1 breast xenograft, nude mice, tumor weight T/C
Assay: NCI In Vivo Anticancer Drug Screen. Data for tumor model Human Mammary Carcinoma MX-1 Xenograft (intrarenal inoculation) in NU/NU Swiss (nude) mice
Details: endpoint: mean tumor weight change, higher = larger tumour
How it was run: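 Antitumour effect measured in vivo against vehicle controls, expressed as T/C.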

[1] = dose: 75.0 mg/kg/injection, schedule: Q04DX003 (sc), vehicle: suspension in saline
[2] = dose: 150.0 mg/kg/injection, schedule: Q04DX003 (sc), vehicle: suspension in saline
[3] = dose: 600.0 mg/kg/injection, schedule: Q04DX003 (sc), vehicle: suspension in saline
[4] = dose: 100.0 mg/kg/injection, schedule: Q01DX010 (sc), vehicle: water
[5] = dose: 200.0 mg/kg/injection, schedule: Q01DX010 (sc), vehicle: water
[6] = dose: 75.0 mg/kg/injection, schedule: Q04DX003 (sc), vehicle: Klucel (hydroxypropylcellulose) (HPC)
[7] = dose: 150.0 mg/kg/injection, schedule: Q04DX003 (sc), vehicle: Klucel (hydroxypropylcellulose) (HPC)
[8] = dose: 300.0 mg/kg/injection, schedule: Q04DX003 (sc), vehicle: suspension in saline
[9] = dose: 300.0 mg/kg/injection, schedule: Q04DX003 (sc), vehicle: Klucel (hydroxypropylcellulose) (HPC)
[10] = dose: 1200.0 mg/kg/injection, schedule: Q04DX003 (sc), vehicle: Klucel (hydroxypropylcellulose) (HPC)
[11] = dose: 2400.0 mg/kg/injection, schedule: Q04DX003 (sc), vehicle: Klucel (hydroxypropylcellulose) (HPC)

## Nc1nc2n[nH]nc2c(=O)[nH]1
dose: 75.0 mg/kg/injection, schedule: Q04DX003 (ip), vehicle: suspension in saline
  T/C: 22 % of control and 46 % of control
[1]
  T/C: 35 % of control
dose: 150.0 mg/kg/injection, schedule: Q04DX003 (ip), vehicle: suspension in saline
  T/C: 6 % of control
[2]
  T/C: 18 % of control
dose: 300.0 mg/kg/injection, schedule: Q04DX003 (ip), vehicle: suspension in saline
  T/C: 1 % of control
[3]
  T/C: -77 % of control

## O=C1C(=O)c2ccccc2C(O)=C1CC=C(Cl)Cl
dose: 25.0 mg/kg/injection, schedule: Q01DX010 (sc), vehicle: water
  T/C: 68 % of control
dose: 50.0 mg/kg/injection, schedule: Q01DX010 (sc), vehicle: water
  T/C: 110 % of control
[4]
  T/C: 109 % of control
[5]
  T/C: 106 % of control

## CCCCCCCC(=O)OCC(=O)[C@]1(O)Cc2c(O)c3c(c(O)c2[C@@H](OC2CC(N)C(O)C(C)O2)C1)C(=O)c1c(OC)cccc1C3=O (stereo not given in full)
dose: 4.0 mg/kg/injection, schedule: Q01DX010 (sc), vehicle: suspension in saline
  T/C: 17 % of control
dose: 8.0 mg/kg/injection, schedule: Q01DX010 (sc), vehicle: suspension in saline
  T/C: 2 % of control

## Nc1ncnc2c(C3OC(CO)C(O)C3O)[nH]nc12 (stereo not given)
[6]
  T/C: -100 % of control
[1]
  T/C: 5 % of control
[7]
  T/C: -100 % of control
[2]
  T/C: 5 % of control
[8]
  T/C: -79 % of control

## c1cc[c]([Sn]([NH]c2ncnc3[nH]cnc23)([NH]c2ncnc3[nH]cnc23)[c]2ccccc2)cc1
[1]
  T/C: 76 % of control
[2]
  T/C: 109 % of control
[8]
  T/C: 111 % of control
[3]
  T/C: 76 % of control

## COc1cc([C@@H]2c3cc4c(c(O)c3C[C@H]3COC(=O)[C@@H]32)OCO4)cc(OC)c1OC
dose: 2.0 mg/kg/injection, schedule: Q01DX010 (sc), vehicle: saline
  T/C: 78 % of control
dose: 4.0 mg/kg/injection, schedule: Q01DX010 (sc), vehicle: saline
  T/C: 56 % of control

## O=NN(CCCl)C(=O)NC1OC(CO)C(O)C(O)C1O (stereo not given)
dose: 5.0 mg/kg/injection, schedule: Q04DX003 (sc), vehicle: saline
  T/C: 91 % of control
dose: 10.0 mg/kg/injection, schedule: Q04DX003 (sc), vehicle: saline
  T/C: 69 % of control
dose: 20.0 mg/kg/injection, schedule: Q04DX003 (sc), vehicle: saline
  T/C: 40 % of control

## C[C@]12C=CC(=O)C=C1CC[C@@H]1[C@@H]2[C@@H](O)C[C@@]2(C)[C@H]1CC[C@]2(O)C(=O)CO
dose: 12.5 mg/kg/injection, schedule: Q01DX010 (sc), vehicle: Klucel (hydroxypropylcellulose) (HPC)
  T/C: 50 % of control
dose: 25.0 mg/kg/injection, schedule: Q01DX010 (sc), vehicle: Klucel (hydroxypropylcellulose) (HPC)
  T/C: 67 % of control
dose: 50.0 mg/kg/injection, schedule: Q01DX010 (sc), vehicle: Klucel (hydroxypropylcellulose) (HPC)
  T/C: 55 % of control
dose: 100.0 mg/kg/injection, schedule: Q01DX010 (sc), vehicle: Klucel (hydroxypropylcellulose) (HPC)
  T/C: 24 % of control

## O=C1OC(C(O)CO)C(O)=C1O (stereo not given)
dose: 200.0 mg/kg/injection, schedule: Q01DX010 (sc), vehicle: saline
  T/C: 107 % of control
dose: 400.0 mg/kg/injection, schedule: Q01DX010 (sc), vehicle: saline
  T/C: 110 % of control
dose: 1600.0 mg/kg/injection, schedule: Q01DX010 (sc), vehicle: saline
  T/C: 121 % of control

## CC[C@@]1(O)C[C@H](OC2CC(N(C)C)C(OC3CC(O)C(OC4CCC(=O)C(C)O4)C(C)O3)C(C)O2)c2c(cc3c(c2O)C(=O)c2c(O)cccc2C3=O)[C@H]1C(=O)OC (stereo not given in full)
dose: 0.25 mg/kg/injection, schedule: Q01DX010 (sc), vehicle: water
  T/C: 91 % of control
dose: 0.5 mg/kg/injection, schedule: Q01DX010 (ip), vehicle: water
  T/C: 74 % of control and 78 % of control
dose: 0.5 mg/kg/injection, schedule: Q01DX010 (sc), vehicle: water
  T/C: 113 % of control
dose: 1.0 mg/kg/injection, schedule: Q01DX010 (sc), vehicle: water
  T/C: 35 % of control
dose: 2.0 mg/kg/injection, schedule: Q01DX010 (ip), vehicle: water
  T/C: 7 % of control
dose: 4.0 mg/kg/injection, schedule: Q01DX010 (sc), vehicle: water
  T/C: 65 % of control

## CCCCCCCCCCCC(=O)NC1CC(O[C@H]2C[C@](O)(C(=O)CO)Cc3c(O)c4c(c(O)c32)C(=O)c2c(OC)cccc2C4=O)OC(C)C1O (stereo not given in full)
[4]
  T/C: 59 % of control
[5]
  T/C: 97 % of control
dose: 400.0 mg/kg/injection, schedule: Q01DX010 (sc), vehicle: water
  T/C: 53 % of control

## O=C(CC(=O)C(F)(F)F)c1csc2ccccc12
[9]
  T/C: 87 % of control
dose: 600.0 mg/kg/injection, schedule: Q04DX003 (sc), vehicle: Klucel (hydroxypropylcellulose) (HPC)
  T/C: 91 % of control
[10]
  T/C: 111 % of control
[11]
  T/C: 99 % of control

## O=C(O)CC(NC(=O)CP(=O)(O)O)C(=O)O (stereo not given)
dose: 50.0 mg/kg/injection, schedule: Q01DX010 (sc), vehicle: saline
  T/C: 117 % of control
dose: 100.0 mg/kg/injection, schedule: Q01DX010 (sc), vehicle: saline
  T/C: 25 % of control and 34 % of control

## COc1cc2c(c(OC)c1OC)-c1c(cc3c(c1OC)OCO3)CC(C)C(C)(O)C2OC(=O)c1ccccc1 (stereo not given)
dose: 300.0 mg/kg/injection, schedule: Q04DX003 (sc), vehicle: saline + alcohol
  T/C: 68 % of control
dose: 600.0 mg/kg/injection, schedule: Q04DX003 (sc), vehicle: saline + alcohol
  T/C: 82 % of control
dose: 1200.0 mg/kg/injection, schedule: Q04DX003 (sc), vehicle: saline + alcohol
  T/C: 79 % of control
dose: 2400.0 mg/kg/injection, schedule: Q04DX003 (sc), vehicle: saline + alcohol
  T/C: 88 % of control

## [I][Hg][CH2]C1OCCOC1[CH2][Hg][I] (stereo not given)
[10]
  T/C: 77 % of control
[11]
  T/C: 98 % of control

## COc1cccc2c1C(=O)c1c(O)c3c(c(O)c1C2=O)C[C@@](O)(C(=O)CO)C[C@@H]3OC1CC(N)CC(C)O1 (stereo not given in full)
dose: 0.19 mg/kg/injection, schedule: Q01DX010 (sc), vehicle: water
  T/C: 43 % of control
dose: 0.37 mg/kg/injection, schedule: Q01DX010 (sc), vehicle: water
  T/C: 51 % of control
dose: 0.75 mg/kg/injection, schedule: Q01DX010 (sc), vehicle: water
  T/C: 61 % of control
dose: 1.5 mg/kg/injection, schedule: Q01DX010 (sc), vehicle: water
  T/C: 59 % of control

## CCCCc1ccc2nc(NC(=O)OC)[nH]c2c1
dose: 200.0 mg/kg/injection, schedule: Q01DX010 (sc), vehicle: saline with Tween-80
  T/C: 109 % of control
dose: 400.0 mg/kg/injection, schedule: Q01DX010 (sc), vehicle: saline with Tween-80
  T/C: 69 % of control
dose: 800.0 mg/kg/injection, schedule: Q01DX010 (sc), vehicle: saline with Tween-80
  T/C: 48 % of control

## CC(=O)OC1OC(=O)C(C)(C(C)=O)C1C (stereo not given)
dose: 5.0 mg/kg/injection, schedule: Q04DX003 (ip), vehicle: distilled water + alcohol
  T/C: 85 % of control
dose: 10.0 mg/kg/injection, schedule: Q04DX003 (ip), vehicle: distilled water + alcohol
  T/C: 109 % of control
dose: 20.0 mg/kg/injection, schedule: Q04DX003 (ip), vehicle: distilled water + alcohol
  T/C: 35 % of control

## O=S(=O)(O)O
[6]
  T/C: 86 % of control
[7]
  T/C: 94 % of control
[9]
  T/C: 85 % of control

## O=C1OC(=O)[C@H]2[C@@H]1[C@H]1C=C[C@@H]2OC1=O
dose: 25.0 mg/kg/injection, schedule: Q04DX003 (sc), vehicle: suspension in saline
  T/C: 83 % of control
dose: 50.0 mg/kg/injection, schedule: Q04DX003 (sc), vehicle: suspension in saline
  T/C: 101 % of control
dose: 100.0 mg/kg/injection, schedule: Q04DX003 (sc), vehicle: suspension in saline
  T/C: 89 % of control
[2]
  T/C: 91 % of control
dose: 200.0 mg/kg/injection, schedule: Q04DX003 (sc), vehicle: suspension in saline
  T/C: 90 % of control
[8]
  T/C: 109 % of control
[3]
  T/C: 89 % of control

## O=C(O)c1cc(C(=O)O)c(C(=O)O)cc1C(=O)O.[NH2-].[NH2-].[NH2-].[NH2-].[Pt+2].[Pt+2]
dose: 1.25 mg/kg/injection, schedule: Q04DX003 (ip), vehicle: water
  T/C: 113 % of control
dose: 5.0 mg/kg/injection, schedule: Q04DX003 (ip), vehicle: water
  T/C: 97 % of control
dose: 10.0 mg/kg/injection, schedule: Q04DX003 (ip), vehicle: water
  T/C: 60 % of control and 76 % of control
dose: 20.0 mg/kg/injection, schedule: Q04DX003 (ip), vehicle: water
  T/C: 66 % of control
dose: 40.0 mg/kg/injection, schedule: Q04DX003 (ip), vehicle: water
  T/C: 26 % of control
dose: 80.0 mg/kg/injection, schedule: Q04DX003 (ip), vehicle: water
  T/C: 15 % of control
